Data set [1] concerns rat model of cerebral ischemia. Description: Rat model of cerebral ischemia: measurement of infarct damage (TTC staining). The data set is classed as in vivo, Male Wistar rats. The note with it: for Infarct Volume (mean): post-ischemia PLP iv, 24 hours after ischemia, control group 37.74%. Here is the method:
(§1) Male Wistar rats (250-300 g) were housed in the animal facility for a period of 12 days and given food and water ab libitum. Animals were randomly assigned to groups (n=8/group) of a) control group b) post-ischemia PLP treatment 10 mg/kg c) post-ischemia PLP treatment […] and d) post-ischemia PLP treatment 40 mg/kg.
(§2) The rats of each group were anaesthetized to surgical depth initially with 3% halothane, and maintained with 1.5% halothane in a 70% N2O/30% O2 (vol./vol.) mixture. Animal core temperature was maintained at approx 37° C. using a heating pad and an overhead lamp. Temperature was measured with a rectal thermometer.
(§3) A midline longitudinal incision of approx 2.0 cm was made in the cervical area. Both common carotid arteries (CCA) were dissected from the surrounding tissue and both the right internal carotid artery (ICA) and the right external carotid artery (ECA) were exposed to a maximal length. Branches of the right ECA will be occluded with electro-coagulation and the distal portion ligated. The right CCA and ICA were occluded by temporary clamping, after which the distal end of the ECA was cut to allow catheter insertion. A loose 5.0 silk suture was tied around the proximal right ECA. A PE-50 catheter [Becton-Dickinson, N.J., USA] (0.3 mm O.D at the tip of the catheter and O.D. 0.97 in the catheter body) was attached to a […] filled with 0.5 ml bovine alpha-thrombin (Thrombostat, Parke-Davis).
(§4) The catheter was introduced into the ICA from the ECA and CCA via a small puncture and the silk suture tied around the ECA to prevent bleeding and dislodgement. This was followed by the removal of vascular clips from the ICA and CCA. 10 ul of blood was withdrawn into the catheter and kept in place for 15 minutes for formation of a thrombin clot. Subsequently 17 mm of the catheter (calculated from the puncture site) was gently advanced through the ECA and extra-cranial portion of the ICA to approximately 2 mm from the origin of the middle cerebral artery. After temporary occlusion of the CCAs bilaterally to slow blood flow, the clot was introduced into the ICA. The clip of the contralateral CCA was removed five minutes later and the catheter was removed 10 minutes after the clot introduction. The ipsilateral ICA was then ligated prior to the removal of the clip on the right CCA, 15 minutes after clot injection. The incision was then sutured and the animals allowed to recover from anesthesia whereupon they were given free access to food & water.
The infarcted brain tissue in the right MCA territory was differentiated using the 2,3,5-triphenyltetrazolium chloride (TTC) staining method. The rats were perfused transcardially with 120 ml 0.9% normal saline under deep anaesthesia, 24 hours after ischemia. The brain was then removed and cooled in ice-cold saline for 5 minutes after which it was dissected in the coronal plane at 2 mm intervals using a rat brain matrix and stored in 10% buffered formalin for fixing. The stained sections were colour scanned within seven days. The 2 mm thick coronal sections were placed directly on the scanning screen and scanned from rostral to caudal ends, with attention paid to soaking up formalin to prevent shadows, and the use of a black background.
Image contrast and brightness was adjusted with Photoshop 4.0; measurements were made by manually outlining the margins of infarct areas in each section. The total volume of infarction was determined by integrating the […] of the eight chosen sections. Values were corrected for any brain edema.
(§5) Control animals were given 3 mL saline (iv) at 2 hours following cerebral ischemia. The pre-ischemia treatment group was given PLP (10 mg/kg, iv in 3 mL) over 30 minutes 1 hour prior to ischemic insult. The post-ischemia groups received PLP at […] iv at 2 hours following cerebral ischemia.
All data was expressed as mean±SD. […]

Data set [2] relates to rat model of cerebral ischemia. Description: Rat model of cerebral ischemia: neurological deficit evaluation (neurobehavioral scores). It is filed as in vivo, Male Wistar rats. The note with it: scale 0-4, evaluation at 2 and 24 hours after thrombus. Here is the method:
as §1, §2, §3, §4
Neurological deficit evaluation was conducted at 2 and 24 hours after injection of thrombus. The neurological findings were scored on a four-point grade scale: no observable deficit—0; forelimb flexion—1; forelimb flexion and decreased resistance to lateral push—2; forelimb flexion, decreased lateral push resistance and unilateral circling in three successive trials—3. A score of 4 was given to animals with a score of 3 plus decreased consciousness.
as §5
All data was expressed as mean±SD. Two-tailed paired Students t-tests were used to compare differences between values obtained before and after treatment. Statistical analysis of more than two groups of animals were performed with ANOVA, with subsequent individual comparisons by Scheffe's test. Differences were considered significant at […].

The conditions of data set [3]: in water, alcohol, and ether; cited from earlier work.
Data set [4] relates to rat model of cerebral ischemia. As to the kind of experiment: Rat model of cerebral ischemia: seizures, hemorrhage and mortality. The note with it: for mortality (number of animals): n=8/group, 2 in control group.

These results are taken from patent US6861439B2, “Treatment of cerebrovascular disease” (Medicure International, Inc., priority 2000, dated 2005).

`Cc1ncc(COP(=O)(O)O)c(C=O)c1O` [PLP, 3-hydroxy-2-methyl-5-[(phosphonooxy)methyl]-4-pyridine-carboxaldehyde]: the “Infarct Volume (mean)” value in data set [1] (10 mg/kg treatment group) is listed as 28.25%,; in data set [1] (20 mg/kg treatment group), 27.4%,; in data set [1] (40 mg/kg treatment group), 19.3%,. Further, in data set [1] (40 mg/kg dose), the “infarct reduction, statistical significance” value is on record as “statistically significant”. For the same molecule, the “therapeutic effect on infarct size and neurobehavioral activity” value in data set [1] (10, 20, 40 mg/kg) is recorded as “dose-dependant therapeutic effect”. Besides, the “anti-ischemic effect in the rat model of ischemia and reperfusion injury” value in data set [1] (overall conclusion) is “demonstrates anti-ischemic effects and benefits against ischemia reperfusion injury”. Also, the “Neurobehavioral score, final (decreased to)” value in data set [2] (10 mg/kg group) came out at 3; in data set [2] (20 mg/kg group), 3; in data set [2] (40 mg/kg group, p<0.001) it was 1.9. Further, the “Neurobehavioral score, initial (decreased from)” value in data set [2] (10 mg/kg group) is listed as 3.6; in data set [2] (20 mg/kg group) it was 3.8; in data set [2] (40 mg/kg group, p<0.001) it was 3.8. In addition, in data set [3], the solubility entry is recorded as “essentially insoluble”. Further, the “mortality (number of animals)” value in data set [4] (10 mg/kg group) stood at 3; in data set [4] (20 mg/kg group) it was 1; in data set [4] (40 mg/kg group) it was 0. Further, the number of seizures entry in data set [4] (the three groups (10, 20, 40 mg/kg)) is listed as “no difference”. Besides, the risk of hemorrhage result in data set [4] (with higher doses) is on record as “did not increase”.
